The text below walks through data of publication PMC9927415, “Tyrosine Kinase Inhibitors Display Potent Activity against Cryptosporidium parvum” (Microbiology Spectrum, 2022).

What all share (test): KINOMEscan competitive binding, whole panel
Experiment [1] deals with T1, panel of 203 kinases (Homo sapiens, UniProt O94768).
T1 construct: purchased DiscoverX (KINOMEscan)
T1 sequence (O94768 1-372): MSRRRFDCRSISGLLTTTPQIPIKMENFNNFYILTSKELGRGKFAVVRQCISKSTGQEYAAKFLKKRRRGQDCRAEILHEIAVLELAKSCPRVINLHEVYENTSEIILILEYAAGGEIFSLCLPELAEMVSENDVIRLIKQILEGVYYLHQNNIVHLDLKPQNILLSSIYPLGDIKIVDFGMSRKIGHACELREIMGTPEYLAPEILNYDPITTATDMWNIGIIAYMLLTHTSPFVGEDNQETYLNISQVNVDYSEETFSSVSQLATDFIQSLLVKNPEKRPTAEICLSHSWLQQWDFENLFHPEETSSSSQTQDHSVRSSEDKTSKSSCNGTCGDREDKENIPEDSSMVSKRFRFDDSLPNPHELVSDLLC
The following applies: 10 µM, n=1; kinase DRAK2; read-out: Percent inhibition DRAK2. The procedure, abridged:
(§1)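 First, kinases were produced as T7 bacteriophage fusion proteins. Then compounds were added to compete them off probe ligands immobilized on a solid support at the ATP site. Finally, bound kinase was measured and converted to percentage inhibition.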

The target in experiment [2] is T2, panel of 203 kinases (Homo sapiens, UniProt O95819).
T2 construct: purchased DiscoverX (KINOMEscan)
The settings on record: 10 µM, n=1; kinase MAP4K4; read-out: Percent inhibition MAP4K4. The essentials: as §1

Experiment [3] has as its target T3, panel of 203 kinases (Homo sapiens, UniProt P00519).
T3 construct: purchased DiscoverX (KINOMEscan)
The settings on record: 10 µM, n=1; kinase ABL1; read-out: Percent inhibition ABL1. The procedure, abridged:
as §1

Experiment [4] addresses T4, panel of 203 kinases (Homo sapiens, UniProt P08631).
T4 construct: purchased DiscoverX (KINOMEscan)
The settings on record: 10 µM, n=1; kinase HCK; read-out: Percent inhibition HCK. The procedure, abridged:
as §1

The target in experiment [5] is T5, panel of 203 kinases (Homo sapiens, UniProt P11362).
T5 construct: purchased DiscoverX (KINOMEscan)
T5 sequence (P11362 22-822): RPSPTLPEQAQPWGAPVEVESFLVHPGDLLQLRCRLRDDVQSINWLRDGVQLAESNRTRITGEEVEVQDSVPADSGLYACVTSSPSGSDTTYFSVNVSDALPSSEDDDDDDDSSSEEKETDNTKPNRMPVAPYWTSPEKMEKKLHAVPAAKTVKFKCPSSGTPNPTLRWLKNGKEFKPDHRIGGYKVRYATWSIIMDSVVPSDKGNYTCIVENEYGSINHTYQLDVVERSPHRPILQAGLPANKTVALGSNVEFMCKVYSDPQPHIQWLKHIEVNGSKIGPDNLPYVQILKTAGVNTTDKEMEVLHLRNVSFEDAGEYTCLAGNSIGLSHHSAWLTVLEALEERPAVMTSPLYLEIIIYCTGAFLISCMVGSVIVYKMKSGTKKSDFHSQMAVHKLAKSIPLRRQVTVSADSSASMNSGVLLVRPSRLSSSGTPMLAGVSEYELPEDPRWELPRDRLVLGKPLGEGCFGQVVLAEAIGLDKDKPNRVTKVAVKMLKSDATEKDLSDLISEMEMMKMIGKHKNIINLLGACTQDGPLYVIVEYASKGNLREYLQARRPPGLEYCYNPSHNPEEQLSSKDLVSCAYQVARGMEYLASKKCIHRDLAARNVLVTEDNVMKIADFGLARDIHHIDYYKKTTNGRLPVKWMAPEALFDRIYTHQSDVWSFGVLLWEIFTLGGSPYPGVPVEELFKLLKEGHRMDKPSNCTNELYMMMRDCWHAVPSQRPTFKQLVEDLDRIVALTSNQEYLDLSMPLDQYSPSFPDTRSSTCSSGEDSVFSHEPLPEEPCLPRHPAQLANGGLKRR
The settings on record: 10 µM, n=1; kinase FGFR1; read-out: Percent inhibition FGFR1. The essentials: as §1

For experiment [6], the target named is T6, panel of 203 kinases (Homo sapiens, UniProt P28482).
T6 construct: purchased DiscoverX (KINOMEscan)
T6 sequence (P28482 whole entry): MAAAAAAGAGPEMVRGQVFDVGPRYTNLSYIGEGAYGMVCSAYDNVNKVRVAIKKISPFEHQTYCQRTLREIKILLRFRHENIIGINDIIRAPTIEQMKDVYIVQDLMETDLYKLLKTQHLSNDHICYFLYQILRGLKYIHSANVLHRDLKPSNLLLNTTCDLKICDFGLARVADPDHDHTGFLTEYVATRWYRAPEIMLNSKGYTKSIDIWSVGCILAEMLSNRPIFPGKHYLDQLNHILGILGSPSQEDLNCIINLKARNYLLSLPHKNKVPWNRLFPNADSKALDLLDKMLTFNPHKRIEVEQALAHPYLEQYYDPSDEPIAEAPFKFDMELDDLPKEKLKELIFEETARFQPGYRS
The settings on record: 10 µM, n=1; kinase ERK2; read-out: Percent inhibition ERK2. The procedure, abridged: as §1

The target in experiment [7] is T7, panel of 203 kinases (Homo sapiens, UniProt P37023).
T7 construct: purchased DiscoverX (KINOMEscan)
T7 sequence (P37023 22-503): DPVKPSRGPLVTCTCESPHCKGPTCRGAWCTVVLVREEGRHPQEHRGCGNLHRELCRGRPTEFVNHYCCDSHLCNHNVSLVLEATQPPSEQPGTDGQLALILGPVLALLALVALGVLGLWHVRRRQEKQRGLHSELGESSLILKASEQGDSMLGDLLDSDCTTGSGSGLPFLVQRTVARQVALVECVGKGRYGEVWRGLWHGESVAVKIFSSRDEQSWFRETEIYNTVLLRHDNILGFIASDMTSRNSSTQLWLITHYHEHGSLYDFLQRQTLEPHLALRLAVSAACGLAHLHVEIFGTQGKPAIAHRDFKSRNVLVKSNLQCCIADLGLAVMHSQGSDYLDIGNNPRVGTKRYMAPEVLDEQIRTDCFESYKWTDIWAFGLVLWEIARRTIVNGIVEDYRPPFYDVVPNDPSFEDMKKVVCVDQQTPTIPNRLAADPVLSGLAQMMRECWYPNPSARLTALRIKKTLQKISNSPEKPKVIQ
The settings on record: 10 µM, n=1; kinase ACVRL1; read-out: Percent inhibition ACVRL1. The essentials: as §1

In experiment [8] the target is T8, panel of 203 kinases (Homo sapiens, UniProt P49840).
T8 construct: purchased DiscoverX (KINOMEscan)
T8 sequence (P49840 whole entry): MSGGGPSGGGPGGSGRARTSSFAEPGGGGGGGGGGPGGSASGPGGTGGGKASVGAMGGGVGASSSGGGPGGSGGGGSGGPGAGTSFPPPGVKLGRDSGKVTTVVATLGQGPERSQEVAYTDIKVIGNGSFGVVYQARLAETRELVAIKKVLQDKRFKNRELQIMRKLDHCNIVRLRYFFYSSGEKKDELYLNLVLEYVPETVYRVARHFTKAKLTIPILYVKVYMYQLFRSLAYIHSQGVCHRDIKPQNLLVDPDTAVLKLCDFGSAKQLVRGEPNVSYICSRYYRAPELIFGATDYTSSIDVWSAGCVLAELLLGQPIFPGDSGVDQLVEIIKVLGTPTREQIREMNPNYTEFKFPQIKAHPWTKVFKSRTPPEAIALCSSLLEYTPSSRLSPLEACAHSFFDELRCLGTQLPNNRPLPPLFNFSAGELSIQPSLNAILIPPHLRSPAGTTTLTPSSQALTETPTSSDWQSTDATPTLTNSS
The following applies: 10 µM, n=1; kinase GSK3A; read-out: Percent inhibition GSK3A. The procedure, abridged: as §1

The target in experiment [9] is T9, panel of 203 kinases (Homo sapiens, UniProt Q13043).
T9 construct: purchased DiscoverX (KINOMEscan)
T9 sequence (Q13043 1-487): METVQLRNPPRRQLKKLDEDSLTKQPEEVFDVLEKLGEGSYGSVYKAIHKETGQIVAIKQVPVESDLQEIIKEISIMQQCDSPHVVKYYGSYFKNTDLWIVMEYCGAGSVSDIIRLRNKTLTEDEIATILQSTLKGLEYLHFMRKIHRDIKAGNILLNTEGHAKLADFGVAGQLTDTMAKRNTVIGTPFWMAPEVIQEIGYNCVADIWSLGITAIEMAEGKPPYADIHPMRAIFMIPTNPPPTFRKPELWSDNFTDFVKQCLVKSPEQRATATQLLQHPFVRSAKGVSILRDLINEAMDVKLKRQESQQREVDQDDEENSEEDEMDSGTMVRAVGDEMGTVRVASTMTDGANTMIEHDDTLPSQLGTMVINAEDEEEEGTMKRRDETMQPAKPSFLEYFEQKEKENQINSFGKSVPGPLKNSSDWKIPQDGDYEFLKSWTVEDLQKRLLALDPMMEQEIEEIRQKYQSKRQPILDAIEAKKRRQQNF
The following applies: 10 µM, n=1; kinase MST1; read-out: Percent inhibition MST1. The procedure, abridged: as §1

Experiment [10] addresses T10, panel of 203 kinases (Homo sapiens, UniProt Q15375).
T10 construct: purchased DiscoverX (KINOMEscan)
The following applies: 10 µM, n=1; kinase EPHA7; read-out: Percent inhibition EPHA7. The essentials:
as §1

For experiment [11], the target named is T11, panel of 203 kinases (Homo sapiens, UniProt Q9P0L2).
T11 construct: purchased DiscoverX (KINOMEscan)
T11 sequence (Q9P0L2 whole entry): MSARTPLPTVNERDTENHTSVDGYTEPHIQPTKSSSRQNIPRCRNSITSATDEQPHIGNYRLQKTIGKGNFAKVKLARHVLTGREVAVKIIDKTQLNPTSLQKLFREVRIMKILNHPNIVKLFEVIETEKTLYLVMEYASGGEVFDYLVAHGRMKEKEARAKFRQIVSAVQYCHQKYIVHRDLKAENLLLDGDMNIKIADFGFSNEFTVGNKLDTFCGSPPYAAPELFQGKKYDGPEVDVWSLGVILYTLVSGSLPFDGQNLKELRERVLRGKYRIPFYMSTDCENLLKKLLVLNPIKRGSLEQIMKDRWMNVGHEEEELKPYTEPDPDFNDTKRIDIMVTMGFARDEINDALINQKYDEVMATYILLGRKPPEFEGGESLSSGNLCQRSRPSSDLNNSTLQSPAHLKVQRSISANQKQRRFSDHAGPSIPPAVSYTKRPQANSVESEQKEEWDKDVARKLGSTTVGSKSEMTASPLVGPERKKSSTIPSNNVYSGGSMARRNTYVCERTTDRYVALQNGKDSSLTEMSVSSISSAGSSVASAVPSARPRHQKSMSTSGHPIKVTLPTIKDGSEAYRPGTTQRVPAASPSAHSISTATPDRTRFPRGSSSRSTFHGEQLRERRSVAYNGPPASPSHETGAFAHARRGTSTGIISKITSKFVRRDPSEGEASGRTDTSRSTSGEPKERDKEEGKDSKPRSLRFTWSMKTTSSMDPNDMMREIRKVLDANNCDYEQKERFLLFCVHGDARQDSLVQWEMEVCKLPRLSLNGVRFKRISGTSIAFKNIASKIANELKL
The settings on record: 10 µM, n=1; kinase MARK1; read-out: Percent inhibition MARK1. The essentials:
as §1

Experiment [12] has as its target T12, panel of 203 kinases (Homo sapiens, UniProt Q9UEE5).
T12 construct: purchased DiscoverX (KINOMEscan)
T12 sequence (Q9UEE5 1-414): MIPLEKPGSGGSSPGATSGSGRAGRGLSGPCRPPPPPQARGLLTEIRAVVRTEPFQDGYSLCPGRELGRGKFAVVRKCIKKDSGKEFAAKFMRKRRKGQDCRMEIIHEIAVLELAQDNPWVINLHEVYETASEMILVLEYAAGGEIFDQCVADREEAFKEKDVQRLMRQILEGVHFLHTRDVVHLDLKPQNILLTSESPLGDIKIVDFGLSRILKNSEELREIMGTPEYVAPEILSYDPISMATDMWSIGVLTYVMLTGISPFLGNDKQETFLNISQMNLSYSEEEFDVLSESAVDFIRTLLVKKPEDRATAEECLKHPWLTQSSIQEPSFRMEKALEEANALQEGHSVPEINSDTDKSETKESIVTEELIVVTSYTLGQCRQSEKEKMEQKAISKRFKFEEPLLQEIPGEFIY
The following applies: 10 µM, n=1; kinase DRAK1; read-out: Percent inhibition DRAK1. The procedure, abridged:
as §1

The target of experiment [13] is T13, panel of 203 kinases (Homo sapiens, UniProt Q9Y6E0).
T13 construct: purchased DiscoverX (KINOMEscan)
T13 sequence (Q9Y6E0 whole entry): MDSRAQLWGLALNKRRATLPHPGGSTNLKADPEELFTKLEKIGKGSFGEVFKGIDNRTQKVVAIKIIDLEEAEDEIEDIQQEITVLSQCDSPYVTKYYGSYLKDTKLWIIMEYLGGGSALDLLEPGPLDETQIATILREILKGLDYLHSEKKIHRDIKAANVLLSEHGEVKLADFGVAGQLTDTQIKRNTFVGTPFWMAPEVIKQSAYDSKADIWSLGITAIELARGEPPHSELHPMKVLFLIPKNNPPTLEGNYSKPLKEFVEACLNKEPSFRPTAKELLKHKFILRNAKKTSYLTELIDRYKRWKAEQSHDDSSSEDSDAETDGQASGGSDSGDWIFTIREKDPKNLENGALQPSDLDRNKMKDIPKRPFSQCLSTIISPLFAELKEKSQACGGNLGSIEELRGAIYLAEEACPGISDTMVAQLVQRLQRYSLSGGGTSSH
The settings on record: 10 µM, n=1; kinase MST3; read-out: Percent inhibition MST3. The essentials:
as §1

T3 sequence (P00519 whole entry): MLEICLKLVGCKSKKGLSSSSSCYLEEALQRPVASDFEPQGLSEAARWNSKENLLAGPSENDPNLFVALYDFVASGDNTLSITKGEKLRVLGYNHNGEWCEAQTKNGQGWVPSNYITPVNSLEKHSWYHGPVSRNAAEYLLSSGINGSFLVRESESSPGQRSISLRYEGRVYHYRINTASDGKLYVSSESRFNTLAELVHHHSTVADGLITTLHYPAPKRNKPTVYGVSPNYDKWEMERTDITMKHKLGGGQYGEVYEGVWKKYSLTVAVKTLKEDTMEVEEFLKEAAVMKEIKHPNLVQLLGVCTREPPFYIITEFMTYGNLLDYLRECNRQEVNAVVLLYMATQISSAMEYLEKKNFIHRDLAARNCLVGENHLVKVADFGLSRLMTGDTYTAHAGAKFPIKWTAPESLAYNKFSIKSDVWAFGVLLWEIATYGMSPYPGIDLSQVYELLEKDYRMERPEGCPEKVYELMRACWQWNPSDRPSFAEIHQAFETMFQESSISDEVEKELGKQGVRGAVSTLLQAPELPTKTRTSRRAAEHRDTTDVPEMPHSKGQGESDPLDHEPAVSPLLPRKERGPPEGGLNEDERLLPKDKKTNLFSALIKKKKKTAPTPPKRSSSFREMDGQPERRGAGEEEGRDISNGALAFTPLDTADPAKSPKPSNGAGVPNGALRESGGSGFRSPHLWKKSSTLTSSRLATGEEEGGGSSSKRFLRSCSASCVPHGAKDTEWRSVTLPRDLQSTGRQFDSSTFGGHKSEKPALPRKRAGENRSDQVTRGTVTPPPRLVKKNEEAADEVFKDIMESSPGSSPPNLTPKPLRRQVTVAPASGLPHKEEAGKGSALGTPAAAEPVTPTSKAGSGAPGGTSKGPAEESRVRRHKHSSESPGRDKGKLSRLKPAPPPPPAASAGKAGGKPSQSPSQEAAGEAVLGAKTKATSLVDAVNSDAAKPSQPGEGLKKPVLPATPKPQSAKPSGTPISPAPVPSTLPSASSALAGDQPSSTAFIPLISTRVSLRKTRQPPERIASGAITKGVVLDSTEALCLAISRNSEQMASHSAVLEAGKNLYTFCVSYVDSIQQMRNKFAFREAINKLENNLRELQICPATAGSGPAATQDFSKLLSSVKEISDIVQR
T4 sequence (P08631 whole entry): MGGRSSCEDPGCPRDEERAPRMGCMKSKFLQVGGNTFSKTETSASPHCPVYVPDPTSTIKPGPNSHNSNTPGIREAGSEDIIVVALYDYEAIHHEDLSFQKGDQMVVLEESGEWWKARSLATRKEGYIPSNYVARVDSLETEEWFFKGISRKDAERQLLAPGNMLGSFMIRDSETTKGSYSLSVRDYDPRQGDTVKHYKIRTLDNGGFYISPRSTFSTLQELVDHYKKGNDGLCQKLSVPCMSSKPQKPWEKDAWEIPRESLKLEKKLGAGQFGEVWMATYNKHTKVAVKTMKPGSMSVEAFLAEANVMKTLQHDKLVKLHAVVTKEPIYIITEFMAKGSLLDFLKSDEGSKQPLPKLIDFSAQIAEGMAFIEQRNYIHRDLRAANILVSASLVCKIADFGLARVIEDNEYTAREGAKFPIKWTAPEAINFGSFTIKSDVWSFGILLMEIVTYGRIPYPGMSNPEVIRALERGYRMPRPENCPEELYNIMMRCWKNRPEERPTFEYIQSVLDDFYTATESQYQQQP

Take `CN1CCN(c2ccc(Nc3nccc(-c4cnn5ncccc45)n3)cc2C#N)CC1` [Compound 1]: the inhibition at 10 µM is 82.4% in [1]; 80% in [2]; 87.3% in experiment [3]; 0% in experiment [4]; 74.1% in experiment [5]; 100% in experiment [6]. The inhibition at 10 µM is 85% in experiment [7]; 100% in experiment [8]; 99.3% in experiment [9]; 67.3% in [10]; 85.3% in experiment [11]; 100% in [12]. Further, the inhibition at 10 µM in [13] came to 99.4%.
Consider `COc1ccc(Nc2nccc(-c3cnn4ncccc34)n2)cc1` [Compound 2], for which the inhibition at 10 µM is 88.6% in [1]; 0% in experiment [2]; 0% in [3]; 0% in experiment [4]; 0% in experiment [5]; 99.2% in experiment [6]. Besides, the inhibition at 10 µM is 0% in [7]; 100% in [8]; 0% in [9]; 74.6% in [10]; 0% in experiment [11]; 98.4% in experiment [12]. Also, the inhibition at 10 µM in experiment [13] came out at 72%.
Consider `Cc1ccc(O)cc1Nc1ccnc(Nc2cccc(C(N)=O)c2)n1` [Compound 3], for which the inhibition at 10 µM in experiment [1] turned out to be 0%; in [2], 98.2%; in [3], 99.7%; in experiment [4], 99.8%; in experiment [5], 0%; in experiment [6], 0%. Further, the inhibition at 10 µM amounted to 99.7% in experiment [7]; 69.7% in experiment [8]; 0% in experiment [9]; 84% in experiment [10]; 0% in [11]; 0% in [12]. Also, in [13], the inhibition at 10 µM was found to be 0%.
Turning to `Cc1ccc(O)cc1N(C)c1ccnc(Nc2cccc(S(N)(=O)=O)c2)n1` [Compound 4], the inhibition at 10 µM came to 0% in experiment [1]; 98% in [2]; 99.8% in [3]; 99.8% in experiment [4]; 0% in experiment [5]; 64% in experiment [6]. The inhibition at 10 µM in [7] came to 100%; in experiment [8], 91.3%; in [9] it was 0%; in experiment [10], 100%; in experiment [11] it was 0%; in experiment [12] it was 0%. Further, in experiment [13], the inhibition at 10 µM worked out at 0%.
Consider `Fc1cccc(COc2ccc(Nc3ncnc4c3CN(CCN3CCOCC3)CC4)cc2Cl)c1` [Compound 6], for which the inhibition at 10 µM in experiment [1], in experiment [2], in experiment [3], in experiment [4], in experiment [5] and in experiment [6] was 0% each time. The inhibition at 10 µM in experiment [7], in experiment [8], in experiment [9], in experiment [10], in experiment [11] and in experiment [12] was 0% each time. For the same compound, the inhibition at 10 µM in experiment [13] stood at 0%.
For `COc1cc(Nc2nccc(-c3sc(N)nc3-c3cccc(NC(=O)c4c(F)cccc4F)c3)n2)cc(OC)c1OC` [Compound 7], the inhibition at 10 µM in experiment [1] came out at 0%; in experiment [2] it was 99.3%; in experiment [3] it was 99.7%; in experiment [4], 99.7%; in experiment [5] it was 99.7%; in [6], 100%. Also, the inhibition at 10 µM in experiment [7] came out at 0%; in experiment [8], 0%; in experiment [9], 97.4%; in [10] it was 0%; in experiment [11], 79%; in [12], 0%. Further, in experiment [13], the inhibition at 10 µM was determined as 93.8%.
On to `C[C@@H](Oc1cc(-c2cnc3ccccn23)sc1C(N)=O)c1ccccc1Cl` [Compound 8], for which the inhibition at 10 µM in experiment [1] was 0%; in experiment [2] it was 0%; in experiment [3] it was 0%; in experiment [4], 0%; in [5] it was 0%; in [6], 80.6%. Besides, the inhibition at 10 µM is 0% in [7]; 0% in [8]; 0% in experiment [9]; 0% in experiment [10]; 0% in experiment [11]; 86.1% in [12]. Moreover, in experiment [13], the inhibition at 10 µM came out at 0%.
With `c1ccc(COc2cccc(-c3ccnc4[nH]ccc34)c2)cc1` [Compound 9], the inhibition at 10 µM in experiment [1], in experiment [2], in experiment [3], in experiment [4], in experiment [5] and in experiment [6] was 0% each time. The inhibition at 10 µM in [7], in [8], in experiment [9], in [10], in [11] and in [12] was 0% in each case. Moreover, the inhibition at 10 µM in experiment [13] amounted to 0%.
Take `Clc1ccc(Nc2ncc(-c3ccccc3)s2)cc1` [Compound 10]: the inhibition at 10 µM in [1], in experiment [2], in experiment [3], in experiment [4], in [5] and in [6] was 0% each time. For the same compound, the inhibition at 10 µM in [7], in experiment [8], in experiment [9], in experiment [10], in [11] and in [12] was 0% each time. Moreover, in experiment [13], the inhibition at 10 µM turned out to be 0%.
